# From patent US20070043006A1, “Formulations of non-steroidal anti-inflammatory agents to treat pathologic ocular angiogenesis” (priority 2003, published 2007)
# System: retinal neovascularization
# Assay: rat pup model of retinopathy of prematurity (oxygen-induced retinopathy)
# Assay type: in vivo
# Details: for inhibition of retinal neovascularization: newborn rat pups exposed to varying oxygen
# Protocol: Anecortave acetate was tested for its angiostatic efficacy in a rat pup model of retinopathy of prematurity (Penn, at al., Investigative Ophthalmology & Visual Science, “The Effect of an Angiostatic Steroid on Neovascularization in a Rat Model of Retinopathy of Prematurity,” Vol. 42(1):283-290, January 2001). Newborn rat pups were placed in an atmosphere of varying oxygen content. The rats received a single intravitreal injection of vehicle or anecortave acetate (500 μg) upon return to room air (day 14) or 2 days later (day 16). There was significant retinal neovascularization in the rats that received vehicle injections.
smiles,measurement,setting,value
"CC(=O)OCC(=O)[C@@]1(O)CC[C@H]2[C@@H]3CCC4=CC(=O)CC[C@]4(C)C3=CC[C@@]21C [Anecortave acetate, 4,9(11)-pregnadien-17α,21-diol-3,20dione-21-acetate]",preretinal neovascularization (neovascular score),"local administration, rat model of oxygen-induced retinopathy, FIG. 1",inhibits preretinal neovascularization
same,inhibition of retinal neovascularization,single intravitreal injection 500 μg 2 days after return to room air (day 16),50%
same,inhibition of retinal neovascularization,single intravitreal injection 500 μg upon return to room air (day 14),66%
